Measured values: US11246873B2, “Directed differentiation of oligodendrocyte precursor cells to a myelinating cell fate” (The Scripps Research Institute, priority 2011, dated 2022)
Entries after “also recorded” stand apart in the source; their conditions may differ. Where two headings read alike, the source gives them in different places.

Key:
[1] = test system: PLP induced EAE mice; details: for clinical severity versus vehicle, prophylactic mode: 10 mg/kg i.p. daily from the day of PLP injection; for dose dependence of clinical EAE scores: various doses i.p. (FTY720 1, 0.1, 0.01 mg/kg; interferon-β 10,000, 3000, 1000 U per mouse)
Protocol: (A-E) SJL mice were immunized with proteolipid peptide (PLP) and pertussis toxin and monitored daily with scoring on the standard clinical EAE scale (0-5). Compounds were administered daily for the duration of the study in saline at 10 mg/kg via intra-peritoneal injection (0.1 ml), starting on the day of the appearance of clinical EAE symptoms (day 10). […] Mean clinical EAE score and standard error of mean (SEM) are shown for each study group.
FIG. 25. […] EAE was induced in mice using PLP and pertussis toxin. […] Prophylactic dosing is defined as administration of compound commenced on the day of PLP injection. Error bars indicate standard deviation of the mean within each group of 8 mice.
(A-F) EAE was induced in mice using PLP and pertussis toxin. […] Error bars indicate standard deviation of the mean within each group of 8 mice.
(A-F) EAE was induced in mice by injecting PLP in complete Freund's adjuvant (CFA) and pertussis toxin, and the animals were scored daily for clinical severity of disease on a scale of 0-5. […] Error bars indicate standard deviation of the mean within each group of 8-10 mice.
10 week old SJL mice were immunized with PLP emulsion and pertusis toxin to induce EAE. […] Compounds were administered daily via intraperitoneal injection of 100 ul in sterile saline at 10 mg/kg alone or in combination with mycophenolate motefil in sterile saline at pH 5 at 20 mg/kg. Compound administration was initiated at disease onset (day 10) while mycophenolate motefil administration was initiated on Day 14. The mice were scored daily on a standard EAE scale of 0-5.
This model is most commonly used to evaluate the potential efficacy of immunomodulatory agents, but can also be used to determine the effectiveness of promyelinating agents that function by enhancing OPC differentiation (M. Fernandez et al., Proc Natl Acad Sci U.S.A, 101, 16363 (2004); X. Lee et al., J Neurosci, 27, 220 (2007); reviewed in R. J. Franklin, C. Ffrench-Constant, Nat Rev Neurosci, 9, 839 (2008)). […] We next evaluated efficacy when the drug is dosed therapeutically, by starting daily injections at the first sign of disease onset.
For the treatment of MS, an OPC differentiation inducing drug would most likely be introduced clinically as part of a combination therapy with an immunosuppressive drug. […] The former reduces T-cell proliferation and alters cytokine expression (A. Noronha, A. Toscas, M. A. Jensen, J Neuroimmunol, 46, 145 (1993); A. Noronha, A. Toscas, M. A. Jensen, Ann Neurol, 27, 207 (1990)), while the latter is an S1P agonist that regulates T-cell trafficking (V. Brinkmann et al., J Biol Chem, 277, 21453 (2002); V. Brinkmann et al., Nat Rev Drug Discov, 9, 883 (2010)).

[2] = test system: OPCs; experiment: Gene expression profile of treated OPCs (Affymetrix rat genome arrays); format: cell-based; details: 6 days
Protocol: FIG. 15. Gene expression profile of OPCs differentiated to oligodendrocytes by benztropine treatment. […] OPCs from the same passage were also pelleted and frozen. Total RNA was isolated from the cells and gene expression analysis was performed using rat genome arrays from Affymetrix. […] Data are represented as fold change over DMSO treated controls.
(A) Increased expression (fold change) of mature oligodendrocyte genes in compound treated cells as compared to DMSO treated cells. (B) Decreased expression (fold change) of OPC genes in compound treated cells as compared to DMSO treated cells.
Benztropine-induced in vitro differentiation of rodent OPCS was confirmed by evaluating the transcription and translation levels of the oligodendrocyte specific markers MBP and myelin oligodendroglial glycoprotein (MOG) by RT-PCR and Western blot analysis, respectively (FIGS. 7B and 13). Additionally, in vitro OPC differentiation activity was assessed by immunofluorescent analysis using multiple markers specifically expressed in mature oligodendrocytes (including MBP, MOG, 2′,3′-cyclic-nucleotide 3′-phosphodiesterase (CNP), […] (GalC), oligodendrocyte marker O1 (O1) and oligodendrocyte marker O4 (O4)) following six days of compound treatment (FIG. 14).

[3] = test system: total splenocytes stimulated with CD3; experiment: T-cell activation (CD69, CD25) and proliferation (CFSE) in vitro; format: cell-based, mouse; details: versus DMSO
From the text: (A-F) Total splenocytes were isolated from mice and stimulated with CD3 and analyzed by flow cytometry for expression of T-cell activation markers CD69 and CD25 and T-cell proliferation using CFSE. (A) Unstimulated cells. (B) DMSO treated cells. […] The numbers represent percentage gated populations positive for the given marker.
(§1) The primary immunological processes involved in MS and EAE are T-cell mediated and the primary treatment paradigms are based on immunomodulatory drugs (T. Kopadze et al., Arch Neurol, 63, 1572 (2006); J. M. Greer et al., J Immunol, 180, 6402 (2007), M. P. Pender and J. M. Greer, curr Allergy Asthma Rep, 7, 285 (2007)).

[4] = test system: splenocytes of EAE mice; details: mouse, in vivo, ip, 10 mg/kg
Protocol: (A-K) EAE was induced in mice by injecting PLP and pertussis toxin. […] Total splenocytes were isolated from the mice, stimulated with PMA and ionomycin, and analyzed for various populations of immune cells and cytokine secretion after 48 hours. Protein transport was blocked in cells used for cytokine analysis using Monoeiosin. […] Error bars indicate standard deviation of the mean within each group of 5 mice.
as §1

[5] = T-cell dependent and independent B-cell responses to TNP-KLH, TNP-LPS, TNP-Ficoll (serum IgG, IgM ELISA); format: in vivo, mouse; details: 10 mg/kg
Protocol: Serum was isolated at various time points and IgG and IgM levels were measured by ELISA. […] Error bars represent standard deviations from 3 replicate ELISAs performed on samples from 5 mice in each treatment group.
as §1

[6] = test system: caspase 3; experiment: Western blot of caspase 3 and cleaved caspase 3 in differentiated OPCs; details: benztropine 1.5 uM, thyroid hormone 1 uM, 6 days
From the text: FIG. 32. Western blot analysis of cleaved caspase activity in differentiated OPCs. […] Total protein was isolated and analyzed by Western blot using a specific antibody for the expression of caspase 3 and cleaved caspase 3.

[7] = test system: C57BL/6 mice fed cuprizone; details: for remyelination / myelin staining in the corpus callosum versus vehicle, week 2: 2 weeks after cuprizone withdrawal
From the text: Data is represented in terms of threshold bins on the grey scale (0-50) as described. Error bars represent standard deviations of at least 6 corpus callosum regions.
(B) Images were converted to a 256 shade grey scale. (C) The 256 shades of grey were divided into 5 bins of 50 shades each. Number of objects in the corpus callosum region in each bin were counted using Image-Pro plus.
By administering drugs at the time when a cuprizone-free diet is reintroduced, the efficacy of promyelinating agents can be examined by evaluating the relative kinetics of OPC dependent remyelination (T. Skripuletz et al., Am J Pathol, 172, 1053 (2008)). […] Drug or vehicle treated mice were sacrificed in groups of 5 weekly for 5 weeks, following drug treatment, and remyelination was quantitatively evaluated by staining the corpus callosum regions of harvested brains with LFB (FIG. 9A, B).

## CN1[C@@H]2CC[C@H]1C[C@@H](OC(c1ccccc1)c1ccccc1)C2 [benztropine]
[1]; 0.1 mg/kg
  effect on clinical severity scores at 0.1 mg/kg: no effect
[1]
  clinical severity versus vehicle, prophylactic mode: significantly decreased clinical severity in both acute and relapse phase
  dose dependence of clinical EAE scores: Dose dependent activity
[1]; listed as Benztropine
  clinical severity versus vehicle, prophylactic mode: dramatically decreased the severity of the acute phase of disease and virtually eliminated the observation of a relapse phase; also recorded: decreased the clinical severity of disease
  dose dependence of clinical EAE scores: dose dependent efficacy
[1]; SJL mice, scale 0-5, compounds 10 mg/kg i.p. daily from day 10, mycophenolate mofetil 20 mg/kg from day 14, mean ± SEM
  mean maximal clinical EAE score in relapse, day 25: 0.2±0.2
[1]; dose response in EAE model
  most effective dose in decreasing clinical severity scores: 12.5 mg/kg
[1]; mouse, in vivo, 10 mg/kg
  general toxicity: general toxicity was not observed
[2]; versus DMSO
  expression of OPC genes and mature oligodendrocyte genes: Downregulation of OPC specific genes required for proliferation; also recorded: downregulation of OPC genes and an upregulation of mature oligodendrocyte genes
[2]; benztropine 2.3 uM
  global clustering of gene expression profiles: cluster with those obtained from T3 treated positive control cells; also recorded: clustering of benztropine treated samples with thyroid hormone treated samples
[3]
  T-cell activation (CD69, CD25): no effect
  T-cell proliferation (CFSE): no effect
[4]
  number of total splenocytes, CD4+, CD8+, CD4+/CD44Hi and CD8+/CD44Hi T-cells: no effect
[5]
  TNP-Ficoll induced B-cell responses (serum IgM and IgG): no effect on IgG and IgM production
  TNP-KLH induced B-cell responses (serum IgM and IgG): no effect on IgG and IgM production
  TNP-LPS induced B-cell responses (serum IgM and IgG): no effect on IgG and IgM production
[6]
  expression of cleaved caspase 3: No expression of cleaved caspase 3 was detected
[7]; 10 mg/kg i.p.
  remyelination / myelin staining in the corpus callosum versus vehicle, week 2: significant increase in myelin staining in the corpus callosum
[7]; 10 mg/kg i.p., listed as benzatropine
  remyelination / myelin staining in the corpus callosum versus vehicle, week 2: increased remyelination
[7]; 10 mg/kg i.p., 2 weeks after drug treatment
  increase in myelin staining in the corpus callosum versus vehicle: ~2 fold
[7]; 10 mg/kg i.p., up to 5 weeks
  myelin staining versus vehicle at later time points: significant differences were not observed
[7]; mouse, in vivo
  toxicity to mature oligodendrocytes: not toxic to mature oligodendrocytes

## CN1CCN(CCCN2c3ccccc3Sc3ccc(C(F)(F)F)cc32)CC1 [trifluoperazine]
[1]; 10 mg/kg i.p. daily from day 10
  recovery time following the acute phase: modest decrease
[1]; SJL mice, scale 0-5, 10 mg/kg i.p. daily from day 10, mean ± SEM
  mean maximal clinical EAE score in relapse, day 26: 0.4±0.4
